Data reported in patent US11091450B2, “Crystal of a caspase inhibitor” (Chia Tai Tianqing Pharmaceutical Group Co., Ltd., priority 2018, dated 2021).
≈ marks a conversion by molar mass, not a printed value.

Key:
Caspase-1 = target: T1, Caspase-1 (Homo sapiens, UniProt P29466); experiment: Caspase-1 Inhibitor Screening Kit (BioVision), fluorogenic substrate; format: biochemical; details: 30 min preincubation at 37° C., substrate 50 μM; read-out: Caspase-1 enzymatic activity (IC50)
T1 construct: purchased BioVision K151-100
T1 sequence (P29466 120-297 limits assumed): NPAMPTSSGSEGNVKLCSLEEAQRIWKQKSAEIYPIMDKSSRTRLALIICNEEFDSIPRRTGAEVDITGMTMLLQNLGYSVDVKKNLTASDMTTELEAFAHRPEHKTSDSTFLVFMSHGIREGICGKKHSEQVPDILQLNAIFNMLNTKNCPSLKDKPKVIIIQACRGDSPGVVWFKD
T1 sequence (P29466 317-404 limits assumed): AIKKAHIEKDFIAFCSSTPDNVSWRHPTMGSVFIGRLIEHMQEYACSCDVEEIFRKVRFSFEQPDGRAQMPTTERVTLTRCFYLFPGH
Experimental: (§1) Caspase Inhibitor Screening Kit for BioVision was used in this experiment to test the inhibitory activity of the test compound on Caspase.
(§2) • 1) Kit: • Caspase-1 Inhibitor Screening Kit (BioVision #K151-100) • Caspase-3 Inhibitor Screening Kit (BioVision #K153-100) • Caspase-8 Inhibitor Screening Kit (BioVision #K158-100) • Wherein, each caspase enzymatic experiment uses the reagents in corresponding kit thereof. Each enzyme was dissolved in 550 μl of the corresponding 2× reaction buffer, sub-packed and stored at −80° C., respectively. • 2) Black 384-well plate (PerkinElmer #6007279) • 3) Instrument: Multi-function microplate reader Molecular Devices (Model: SpectraMax M2e) Experimental Method: • 1) The compound of formula I-A was diluted to a 200* test concentration with DMSO via the multiple dilution, then to a 2* test concentration with ddH2O, and added to a 384-well experimental plate at 12.5 μl per well. […] After the substrate was added, the 384-well experimental plate was incubated at 37° C. for 30 minutes. • 4) The fluorescence intensity (excitation light wavelength was 400 nm, emission light wavelength was 505 nm) was measured by using a multi-function microplate reader. Fluorescence intensity was used to calculate the inhibitory effect of the compounds on Caspase. […]

Caspase-3 = target: T2, Caspase-3 (Homo sapiens, UniProt P42574); experiment: Caspase-3 Inhibitor Screening Kit (BioVision), fluorogenic substrate; format: biochemical; details: 30 min preincubation at 37° C., substrate 50 μM; read-out: Caspase-3 enzymatic activity (IC50)
T2 construct: purchased BioVision K153-100
T2 sequence (P42574 29-175 limits assumed): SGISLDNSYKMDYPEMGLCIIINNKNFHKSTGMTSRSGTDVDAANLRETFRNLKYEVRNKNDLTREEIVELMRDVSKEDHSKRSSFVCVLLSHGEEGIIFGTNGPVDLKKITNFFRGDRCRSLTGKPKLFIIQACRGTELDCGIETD
T2 sequence (P42574 176-277 limits assumed): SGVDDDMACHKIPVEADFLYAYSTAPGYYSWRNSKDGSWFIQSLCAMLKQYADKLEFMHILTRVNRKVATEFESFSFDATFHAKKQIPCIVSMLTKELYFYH
Experimental: as §1, §2

Caspase-8 = target: T3, Caspase-8 (Homo sapiens, UniProt Q14790); experiment: Caspase-8 Inhibitor Screening Kit (BioVision), fluorogenic substrate; format: biochemical; details: 30 min preincubation at 37° C., substrate 50 μM; read-out: Caspase-8 enzymatic activity (IC50)
T3 construct: purchased BioVision K158-100
Experimental: as §1, §2

[1] = Solid stability test of crystal IV (temperature, humidity, light; HPLC impurities); format: physicochemical
Experimental: 8 mg of crystal IV of the compound of formula I-A was taken, weighed accurately, placed in the sample vial and spread into a thin layer. The samples at day 0 were sealed with the bottle cap and further sealed with the sealing film, followed by storing in the refrigerator at −20° C. The stability of the samples was tested under 60° C., 92.5% RH, 25° C./60% RH, 40° C./75% RH, 60° C./75% RH and light conditions, respectively.
Analysis method: Agilent 1260 High Performance Liquid Chromatography equipped with DAD detector or Waters 2695 High Performance Liquid Chromatography equipped with PDA detector was used; chromatographic column: Waters Xselect CSH C18 (4.6 mm×150 mm, 3.5 μm), column temperature: 40° C., flow rate: 1.0 ml/min, detection wavelength: 215 nm, injection volume: 10 μL, sample concentration: 0.5 mg/mL, diluent: methanol, and the gradient of mobile phases in Table 9 was used for analysis.

[2] = Solubility test of crystal IV in different pH medium solutions; format: physicochemical; details: thermodynamic from solid, 37° C.
Experimental: 2 ml of pH medium solutions were transferred into 4 ml glass bottle respectively, and then 8 mg of crystal IV of the compound of formula I-A was added thereto. It was stirred and heated on a magnetic stirrer, and the temperature was kept at 37° C. After 4 hours and 24 hours, 1 mL of sample was taken and centrifuged rapidly, respectively. The pH value of the supernatant was determined, and the supernatant was diluted with diluent. The concentration was determined by HPLC.

[3] = aqueous buffer, pH = 4.5 Buffer, supernatant pH 4.67
[4] = aqueous buffer, pH = 5.5 Buffer, supernatant pH 5.55
[5] = aqueous buffer, pH = 6.0 Buffer, supernatant pH 6.04

T3 sequence (Q14790 217-374 limits assumed): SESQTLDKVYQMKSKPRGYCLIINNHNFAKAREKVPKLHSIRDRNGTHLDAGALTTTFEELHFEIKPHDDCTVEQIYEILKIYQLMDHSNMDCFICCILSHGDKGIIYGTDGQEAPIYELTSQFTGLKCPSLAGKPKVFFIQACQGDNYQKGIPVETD
T3 sequence (Q14790 385-479 limits assumed): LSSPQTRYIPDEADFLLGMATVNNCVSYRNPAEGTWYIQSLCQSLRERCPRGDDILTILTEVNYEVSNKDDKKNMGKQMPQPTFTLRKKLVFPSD

C[C@H](NC(=O)c1cc(-c2ccccc2Cl)on1)C(=O)N[C@@H](CC(=O)O)C(=O)COc1c(F)c(F)cc(F)c1F [Compound of formula I-A, (S)-3-((S)-2-(5-(2-chlorophenyl)isoxazol-3-carboxamido)propionamido)-4-oxo-5-(2,3,5,6-tetrafluorophenoxy)pentanoic acid]
IC50 (Caspase-1): 4.6 nM
IC50 (Caspase-3): 13 nM
IC50 (Caspase-8): 10.3 nM

C[C@H](NC(=O)c1cc(-c2ccccc2Cl)on1)C(=O)N[C@@H](CC(=O)O)C(=O)COc1c(F)c(F)cc(F)c1F [crystal IV, (S)-3-((S)-2-(5-(2-chlorophenyl)isoxazol-3-carboxamido)propionamido)-4-oxo-5-(2,3,5,6-tetrafluorophenoxy)pentanoic acid]
Appearance ([1]; 25° C./60% RH, 10 days): White solid powder
Total Impurities (%) ([1]; 25° C./60% RH, 10 days): 0.20%
Property ([1]; 25° C./92.5% Relative Humidity (Exposure)): White solid
Appearance ([1]; 40° C./75% RH, 10 days): White solid powder
Total Impurities (%) ([1]; 40° C./75% RH, 10 days): 0.19%
Property ([1]; 60° C. (Exposure)): White solid
Appearance ([1]; 60° C./75% RH, 10 days): White solid powder
Total Impurities (%) ([1]; 60° C./75% RH, 10 days): 0.48%
Property ([1]; Light): White solid
Crystal ([1]; crystal form after 25° C./60% RH, 10 days): Crystal IV
Crystal ([1]; crystal form after 25° C./92.5% Relative Humidity (Exposure)): Crystal IV
Crystal ([1]; crystal form after 40° C./75% RH, 10 days): Crystal IV
Crystal ([1]; crystal form after 60° C. (Exposure)): Crystal IV
Crystal ([1]; crystal form after 60° C./75% RH, 10 days): Crystal IV
Crystal ([1]; crystal form after Light): Crystal IV
total impurities produced ([1]; high temperature and high humidity conditions (summary of Table 10)): ≤ 0.5%
stability under high temperature and high humidity conditions ([1]; summary of Table 10): stable
hygroscopicity ([1]; summary of Table 11): low hygroscopicity
stability under high temperature and light conditions ([1]; summary of Table 11): good stability
solubility at 4 h ([2]; 0.01 N HCl buffer, simulated gastric fluid, 0.01N of HCl Buffer, supernatant pH 2.01): 5 µg/mL (≈ 8.74 µM)
solubility at 24 h ([2]; 0.01 N HCl buffer, simulated gastric fluid, 0.01N of HCl Buffer, supernatant pH 2.07): 6 µg/mL (≈ 10.5 µM)
solubility at 4 h ([2]; 0.1 N HCl buffer, simulated gastric fluid, 0.1N of HCl Buffer, supernatant pH 1.07): 5 µg/mL (≈ 8.74 µM)
solubility at 24 h ([2]; 0.1 N HCl buffer, simulated gastric fluid, 0.1N of HCl Buffer, supernatant pH 1.11): 6 µg/mL (≈ 10.5 µM)
solubility at 4 h ([2]; aqueous buffer, pH = 3.8 Buffer, supernatant pH 3.97): 7 µg/mL (≈ 12.2 µM)
solubility at 24 h ([2]; aqueous buffer, pH = 3.8 Buffer, supernatant pH 3.99): 8 µg/mL (≈ 14 µM)
solubility at 4 h [2, 3]: 16 µg/mL (≈ 28 µM)
solubility at 24 h [2, 3]: 16 µg/mL (≈ 28 µM)
solubility at 4 h [2, 4]: 268 µg/mL (≈ 469 µM)
solubility at 24 h [2, 4]: 254 µg/mL (≈ 444 µM)
solubility at 4 h [2, 5]: 372 µg/mL (≈ 651 µM)
solubility at 24 h [2, 5]: 340 µg/mL (≈ 595 µM)
solubility at 4 h ([2]; aqueous buffer, pH = 6.8 Buffer, supernatant pH 6.71): 775 µg/mL (≈ 1360 µM)
solubility at 4 h ([2]; aqueous buffer, pH = 7.4 Buffer, supernatant pH 7.28): 1700 µg/mL (≈ 2970 µM)
solubility at 24 h ([2]; aqueous buffer, pH = 7.4 Buffer, supernatant pH 7.24): 1620 µg/mL (≈ 2830 µM)
solubility at 24 h ([2]; pH 6.7, aqueous buffer, pH = 6.8 Buffer, supernatant pH 6.70): 702 µg/mL (≈ 1230 µM)
solubility at 4 h ([2]; Water, supernatant pH 7.83): 339 µg/mL (≈ 593 µM)
solubility at 24 h ([2]; Water, supernatant pH 7.34): 266 µg/mL (≈ 465 µM)
